Test system: U87MG tumors
Experiment: Tumor growth
Type: in vivo, athymic nude mice
Settings: two doses of doxorubicin 5 mg/kg/dose two days apart, tail vein; at day 5 after the treatment started, P < 0.05

SMILES: COc1cccc2c1C(=O)c1c(O)c3c(c(O)c1C2=O)C[C@@](O)(C(=O)CO)C[C@@H]3O[C@H]1C[C@H](N)[C@H](O)[C@H](C)O1 [doxorubicin]
- tumor growth response: significant growth inhibition
